Test results: ChEMBL document CHEMBL1201862, “PubChem BioAssay data set” (2004)
Calls of active or inactive are those of the source.

Key:
[1] = molecular target: T1, Protein RecA (Mycobacterium tuberculosis, UniProt P9WHJ3); assay: Fluorescence Cell-Free Homogeneous Dose Retest to Identify Inhibitors of RecA-Intein Splicing Activity. [Related pubchem assays (depositor defined):AID2097, AID2223, AID489010, AID492950]; type: functional
T1 sequence (P9WHJ3 whole entry): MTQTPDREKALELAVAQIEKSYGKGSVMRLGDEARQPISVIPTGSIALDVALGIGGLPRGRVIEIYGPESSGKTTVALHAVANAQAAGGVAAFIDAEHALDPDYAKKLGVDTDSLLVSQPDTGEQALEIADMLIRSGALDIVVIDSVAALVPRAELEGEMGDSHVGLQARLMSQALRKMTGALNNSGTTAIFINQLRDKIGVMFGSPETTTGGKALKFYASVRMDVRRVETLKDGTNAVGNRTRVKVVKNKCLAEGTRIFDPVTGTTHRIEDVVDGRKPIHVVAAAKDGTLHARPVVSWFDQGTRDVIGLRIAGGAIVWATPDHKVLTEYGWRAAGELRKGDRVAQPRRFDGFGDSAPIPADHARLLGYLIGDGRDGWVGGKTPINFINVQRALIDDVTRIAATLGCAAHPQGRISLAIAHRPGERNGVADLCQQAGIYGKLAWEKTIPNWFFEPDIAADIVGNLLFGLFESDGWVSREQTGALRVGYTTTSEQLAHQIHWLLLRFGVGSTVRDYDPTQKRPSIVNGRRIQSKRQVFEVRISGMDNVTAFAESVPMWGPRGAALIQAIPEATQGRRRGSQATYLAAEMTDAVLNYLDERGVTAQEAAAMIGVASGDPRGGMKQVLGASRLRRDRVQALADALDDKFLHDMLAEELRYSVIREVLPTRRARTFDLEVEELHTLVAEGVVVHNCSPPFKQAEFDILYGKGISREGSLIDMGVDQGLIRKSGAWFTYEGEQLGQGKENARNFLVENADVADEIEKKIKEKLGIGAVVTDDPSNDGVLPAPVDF

[2] = molecular target: T2, Polyadenylate-binding protein 1 (Homo sapiens, UniProt P11940); assay: PABP1 MLLE–PAM2 interaction inhibitors, dose response, miRNA deadenylation inhibitor project, biochemical, fluorescence polarization, Cy5-PAM2 peptide, secondary (AID 602260); type: functional; details: read-out: IC50_Mean
[3] = molecular target: T2, Polyadenylate-binding protein 1; assay: PABP1 MLLE–PAM2 binding inhibitor potency, dose response, biochemical, fluorescence polarization, FITC-PAM2 peptide (AID 602259); type: functional; details: read-out: IC50_Mean
[4] = THP-1 cell cytotoxicity, dose response, cytotoxicity control for Vif-APOBEC3G degradation inhibitor project, THP-1 cells (AID 1117359); type: functional; details: Human immunodeficiency virus 1, THP-1
[5] = Luminescence Cell-Based Dose Response to Identify Activators of 5'UTR Stem-Loop Driven Prion Protein mRNA Translation in H4-C Neuroglioblastoma Cells. [Related pubchem assays: 1829 (Project Summary), 1814 (Primary HTS)]; type: functional
[6] = Luminescence Cell-Based Dose Confirmation HTS to Identify Activators of 5'UTR Stem-Loop Driven Alpha-Synuclein mRNA Translation in H4 Neuroglioblastoma Cells. [Related pubchem assays: 1829 (Project Summary), 1814 (Primary HTS)]; type: functional
[7] = Luminescence Cell-Based Dose Response HTS to Identify Activators of Luciferase Translation or Activity in H4 […] Cells. [Related pubchem assays: 1829 (Project Summary), 1814 (Primary HTS)]; type: functional
[8] = tested on: H4; assay: Luminescence Cell-Based Dose Response HTS to Identify Activators of 5'UTR Stem-Loop Driven Prion Protein mRNA Translation in H4 Neuroglioblastoma Cells. [Related pubchem assays: 1829 (Project Summary), 1814 (Primary HTS)]; type: functional; details: Homo sapiens
[9] = Luminescence Cell-Based Dose Response to Identify Activators of Luciferase Translation or Activity in H4-C Neuroglioblastoma Cells. [Related pubchem assays: 1829 (Project Summary), 1814 (Primary HTS)]; type: functional
[10] = Luminescence Cell-Based Dose Confirmation to Identify Activators of 5'UTR Stem-Loop Driven Alpha-Synuclein mRNA Translation in H4 Neuroglioblastoma Cells. [Related pubchem assays: 1829 (Project Summary), 1814 (Primary HTS)]; type: functional
[11] = molecular target: G-protein coupled receptor 183 (Homo sapiens, UniProt P32249); assay: SAR confirmation of small molecule antagonists of the EBI2 receptor via a luminescent beta-arrestin assa.; type: functional
[12] = P. falciparum Dd2 growth inhibitors, dose response, SYBR Green, dry powder samples, set 9 (AID 1159568); type: functional, cell-based
[13] = Concentration-dependent survival of SW480 colon cancer line, luminescence detection with CellTiter-Glo, half-maximal inhibitory concentration (AID 1117338); type: functional
[14] = RKO cell viability reduction, dose response, CellTiter-Glo luminescence (AID 1117322); type: functional
[15] = cytotoxicity toward HCT116 cells – cell-based, CellTiter-Glo luminescence, IC50, dose response (AID 1117332); type: functional; details: HCT-116
[16] = SNU-C1 cell viability reduction, dose response, CellTiter-Glo luminescence (AID 1117323); type: functional, cell-based
[17] = cytotoxicity toward Colo320 cells – cell-based, CellTiter-Glo luminescence, IC50, dose response (AID 1117334); type: functional; details: COLO 320
[18] = cytotoxicity toward HT-29 cells – cell-based, CellTiter-Glo luminescence, IC50, dose response (AID 1117330); type: functional
[19] = CellTiter-Glo luminescent dose response of DLD-1 viability loss (AID 1117352); type: functional
[20] = HCT116 cell viability decrease, GSK3B pretreatment – CellTiter-Glo, IC50, dose response (AID 1117339); type: functional; details: HCT-116
[21] = P. falciparum 3D7-ScDHODH growth inhibitors, dose response, SYBR Green, dry powder samples (AID 1159570); type: functional, cell-based;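 note: parasite growth measured after 72 hours of compound exposure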
[22] = HepG2 cell cytotoxicity, dose response, cytotoxicity control, plate reader, dry powder samples (AID 1159569); type: functional, cell-based;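 note: inhibitor potency with signal falling toward the positive control level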
[23] = P. falciparum Dd2 growth inhibitors, dose response, SYBR Green, cherry-picked samples (AID 1159567); type: functional, cell-based
[24] = P. falciparum Dd2 growth inhibitors, dose response, SYBR Green, dry powder samples (AID 1159566); type: functional, cell-based;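 note: potency for growth inhibition with lower SYBR green DNA signal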
[25] = P. falciparum ATP4 D1247Y mutant growth inhibitors, dose response, NITD609-resistant line, SYBR Green, dry powder (AID 1159571); type: functional, cell-based;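 note: parasites synchronized at ring stage by sorbitol before testing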
[26] = tested on: Vero; assay: host cell cytotoxicity of antiviral hits, dose response, cytotoxicity control for West Nile virus antiviral project, secondary assay (AID 1650); type: functional; details: Chlorocebus sabaeus
[27] = molecular target: T3, Ubiquitin-conjugating enzyme E2 N (Homo sapiens, UniProt P61088); type: functional;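 note: Dose-response confirmation in a TR-FRET assay detecting UBC13-driven polyubiquitin chain formation, inhibition measured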
T3 sequence (P61088 whole entry): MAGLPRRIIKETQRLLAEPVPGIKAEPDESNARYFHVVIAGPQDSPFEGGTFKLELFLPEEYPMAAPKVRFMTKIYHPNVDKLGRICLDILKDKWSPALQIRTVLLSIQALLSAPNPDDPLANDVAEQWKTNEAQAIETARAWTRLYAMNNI

[28] = Dose-response inhibition of insulin secretion in a rat insulinoma line at 5 mM glucose (AID 1117331); type: functional, cell-based; details: INS-1E
[29] = half-maximal inhibitory concentration for glucagon-like peptide-1 release, STC-1 cell line, dose-response (AID 1117345); type: functional, cell-based
[30] = Glucagon-like peptide 1 release potency, NCI-H716 cell line, dose-response, half-maximal inhibitory concentration (AID 1117344); type: functional, cell-based

T2 sequence (P11940 whole entry): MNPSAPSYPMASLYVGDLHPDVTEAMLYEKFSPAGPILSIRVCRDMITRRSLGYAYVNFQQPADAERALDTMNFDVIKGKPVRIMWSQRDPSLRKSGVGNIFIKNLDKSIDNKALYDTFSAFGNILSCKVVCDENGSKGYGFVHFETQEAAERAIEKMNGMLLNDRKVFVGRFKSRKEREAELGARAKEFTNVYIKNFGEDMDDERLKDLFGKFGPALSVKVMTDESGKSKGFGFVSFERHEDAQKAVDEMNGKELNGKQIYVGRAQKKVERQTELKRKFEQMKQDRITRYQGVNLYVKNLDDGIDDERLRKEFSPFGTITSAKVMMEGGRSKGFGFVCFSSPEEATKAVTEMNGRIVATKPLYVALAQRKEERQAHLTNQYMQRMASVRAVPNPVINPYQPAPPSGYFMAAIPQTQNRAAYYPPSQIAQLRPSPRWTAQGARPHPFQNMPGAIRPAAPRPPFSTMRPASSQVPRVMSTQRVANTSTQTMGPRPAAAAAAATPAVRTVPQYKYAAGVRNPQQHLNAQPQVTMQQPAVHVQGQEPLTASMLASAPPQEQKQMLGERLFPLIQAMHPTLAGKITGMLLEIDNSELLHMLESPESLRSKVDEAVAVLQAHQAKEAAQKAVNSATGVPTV
Sequence of G-protein coupled receptor 183 (P32249 whole entry): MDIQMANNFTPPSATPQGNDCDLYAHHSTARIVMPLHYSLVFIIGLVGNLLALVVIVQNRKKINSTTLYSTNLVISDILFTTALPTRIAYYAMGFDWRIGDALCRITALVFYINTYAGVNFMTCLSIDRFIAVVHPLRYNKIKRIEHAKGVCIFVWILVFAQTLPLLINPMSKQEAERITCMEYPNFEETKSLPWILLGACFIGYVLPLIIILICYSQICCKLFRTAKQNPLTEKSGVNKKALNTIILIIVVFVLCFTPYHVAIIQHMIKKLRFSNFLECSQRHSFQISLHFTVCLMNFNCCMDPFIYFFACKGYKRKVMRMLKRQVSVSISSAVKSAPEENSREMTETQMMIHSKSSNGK

## Cc1ccc(C(=O)N/N=C\c2cc(Br)c(Br)o2)cn1
[1]
  EC50: > 380 µM (inconclusive)
[2]
  IC50: > 66 µM (inactive)
[3]
  IC50: 46.3 µM (inactive)
[4]
  CC50: 18.2 µM (active)

## Fc1ccccc1NC(=S)N/N=C/c1ccccc1Br
[5]
  EC50: 0.578 µM (active)
[6]
  EC50: 0.219 µM (active)
[7]
  EC50: < 0.1 µM (active)
[8]
  EC50: > 120 µM (not active)
[9]
  EC50: 0.376 µM (active)
[10]
  EC50: 5.76 µM (active)

## O=C(/C=C/c1ccc(F)cc1)N1CCN(S(=O)(=O)c2ccccc2)CC1
[11]
  IC50: 0.0125 µM (active)

## C[C@@H]1CN([C@@H](C)CO)C(=O)c2cc(C#Cc3ccccc3)cnc2O[C@H]1CN(C)C(=O)c1ccccc1
[12]
  AC50: 4.99 µM (active)

## CCCCCCCCCCCCCCCC(=O)OCC=C(C)C=CC=C(C)C=CC1=C(C)CCCC1(C)C
[13]
  IC50: > 20 µM (inactive)
[14]
  IC50: > 20 µM (inactive)
[15]
  IC50: > 20 µM (inactive)
[16]
  IC50: > 20 µM (inactive)
[17]
  IC50: > 20 µM (inactive)
[18]
  IC50: > 20 µM (inactive)
[19]
  IC50: > 20 µM (inactive)
[20]
  IC50: > 20 µM (inactive)

## CCCNC(=O)N1[C@H](C#N)[C@H](c2ccc(C3=CCCCC3)cc2)[C@@H]1CO
[21]
  AC50: 3.39 µM (active)
[22]
  AC50: 0.601 µM (active)
[12]
  AC50: 0.355 µM (active)
[23]
  AC50: < 0.3 µM (active)
[24]
  AC50: 0.0228 µM (active)
[25]
  AC50: 0.0853 µM (active)

## O=C(/C=C/c1ccc(Br)cc1)N1CCN(S(=O)(=O)c2ccc(Br)cc2)CC1
[11]
  IC50: 0.00166 µM (active)

## Cc1ccc(Nc2nc(NCCO)c3ccccc3n2)cc1C
[26]
  CC50: 13.4 µM (active)
[27]
  IC50: > 20 µM (inactive)

## CC(C)CCCC(C)NCCC(C)C (stereo not given) [OCTAMYLAMINE]
[28]
  IC50: > 33.3 µM (inactive)
[29]
  IC50: > 40 µM (inactive)
[30]
  IC50: > 40 µM (inactive)

## CC(=C(CCOC(=O)C(C)C)SSC(CCOC(=O)C(C)C)=C(C)N(C=O)Cc1cnc(C)nc1N)N(C=O)Cc1cnc(C)nc1N [SULBUTIAMINE]
[28]
  IC50: > 33.3 µM (inactive)
[29]
  IC50: > 40 µM (inactive)
[30]
  IC50: 2.39 µM (active)
